Assays:
[1] = biological target: T1, Adenosine receptor A2a (Homo sapiens, UniProt P29274); experiment: Displacement of [3H]ZM-241385 from recombinant human adenosine A2A receptor expressed in HeLa cells at 0.1 uM
[2] = biological target: T2, Adenosine receptor A2b (Homo sapiens) (UniProt P29275); experiment: Displacement of [3H]DPCPX from recombinant human adenosine A2B receptor expressed in HEK293 cells at 0.1 uM; type: cell-based
T2 sequence (whole entry): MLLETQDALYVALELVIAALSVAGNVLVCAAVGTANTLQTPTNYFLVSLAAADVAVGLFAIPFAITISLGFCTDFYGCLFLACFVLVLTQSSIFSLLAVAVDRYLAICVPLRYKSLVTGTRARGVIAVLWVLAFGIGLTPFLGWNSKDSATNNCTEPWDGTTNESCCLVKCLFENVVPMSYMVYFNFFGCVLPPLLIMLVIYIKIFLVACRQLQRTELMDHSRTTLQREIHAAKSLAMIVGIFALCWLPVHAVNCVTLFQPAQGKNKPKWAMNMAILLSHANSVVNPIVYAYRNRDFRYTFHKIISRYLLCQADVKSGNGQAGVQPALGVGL

[3] = biological target: T3, Adenosine receptor A1 (Homo sapiens, UniProt P30542)
T3 sequence (P30542 whole entry): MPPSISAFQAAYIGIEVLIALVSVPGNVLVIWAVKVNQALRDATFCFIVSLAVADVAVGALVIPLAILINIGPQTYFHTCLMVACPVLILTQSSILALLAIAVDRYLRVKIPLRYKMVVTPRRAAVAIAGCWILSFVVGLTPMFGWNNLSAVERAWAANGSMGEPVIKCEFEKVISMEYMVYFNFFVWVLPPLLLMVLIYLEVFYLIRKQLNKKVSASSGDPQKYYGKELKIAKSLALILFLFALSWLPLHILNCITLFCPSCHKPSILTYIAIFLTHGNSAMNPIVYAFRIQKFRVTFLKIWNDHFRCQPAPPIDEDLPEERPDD
Description: Binding affinity to recombinant human adenosine A1 receptor

[4] = biological target: Adenosine receptor A2a (Rattus norvegicus, UniProt P30543); experiment: Antagonist potency against adenosine A2A receptor of Sprague-Dawley rat aortic smooth muscle; type: functional; settings: read-out: pA2 (converted)
Sequence of Adenosine receptor A2a (Rattus norvegicus, UniProt P30543) (P30543 whole entry): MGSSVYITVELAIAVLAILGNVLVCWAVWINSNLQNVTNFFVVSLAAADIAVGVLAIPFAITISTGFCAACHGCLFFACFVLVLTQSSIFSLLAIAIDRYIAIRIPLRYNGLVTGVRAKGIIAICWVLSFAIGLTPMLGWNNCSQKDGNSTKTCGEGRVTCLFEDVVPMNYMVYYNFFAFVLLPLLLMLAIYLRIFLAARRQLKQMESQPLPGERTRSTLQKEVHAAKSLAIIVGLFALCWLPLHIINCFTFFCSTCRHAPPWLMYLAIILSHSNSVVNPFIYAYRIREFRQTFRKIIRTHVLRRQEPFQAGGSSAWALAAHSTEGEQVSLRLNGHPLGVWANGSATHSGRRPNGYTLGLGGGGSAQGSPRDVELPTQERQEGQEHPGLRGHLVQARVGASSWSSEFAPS

[5] = biological target: T2, Adenosine receptor A2b (Homo sapiens); experiment: Displacement of [3H]DPCPX from recombinant human adenosine A2B receptor expressed in HEK293 cells at 0.01 uM
[6] = biological target: T1, Adenosine receptor A2a
Description: Binding affinity to recombinant human adenosine A2A receptor

[7] = biological target: T4, Adenosine receptor A2b (Homo sapiens, UniProt P29275)
T4 sequence (P29275 whole entry): T2 sequence (whole entry)
Description: Binding affinity to recombinant human adenosine A2B receptor

[8] = biological target: T5, Adenosine receptor A3 (Homo sapiens, UniProt P0DMS8)
T5 sequence (P0DMS8 whole entry): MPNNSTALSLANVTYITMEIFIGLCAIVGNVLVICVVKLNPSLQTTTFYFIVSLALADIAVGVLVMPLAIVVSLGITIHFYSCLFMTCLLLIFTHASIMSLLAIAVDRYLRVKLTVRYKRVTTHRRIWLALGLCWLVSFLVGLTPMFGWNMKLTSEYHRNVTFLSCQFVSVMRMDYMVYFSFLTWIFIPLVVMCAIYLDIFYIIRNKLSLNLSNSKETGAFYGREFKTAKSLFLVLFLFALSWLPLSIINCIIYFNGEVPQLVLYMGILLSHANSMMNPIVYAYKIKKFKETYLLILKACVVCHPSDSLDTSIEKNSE
Description: Binding affinity to recombinant human adenosine A3 receptor

T1 sequence (P29274 whole entry): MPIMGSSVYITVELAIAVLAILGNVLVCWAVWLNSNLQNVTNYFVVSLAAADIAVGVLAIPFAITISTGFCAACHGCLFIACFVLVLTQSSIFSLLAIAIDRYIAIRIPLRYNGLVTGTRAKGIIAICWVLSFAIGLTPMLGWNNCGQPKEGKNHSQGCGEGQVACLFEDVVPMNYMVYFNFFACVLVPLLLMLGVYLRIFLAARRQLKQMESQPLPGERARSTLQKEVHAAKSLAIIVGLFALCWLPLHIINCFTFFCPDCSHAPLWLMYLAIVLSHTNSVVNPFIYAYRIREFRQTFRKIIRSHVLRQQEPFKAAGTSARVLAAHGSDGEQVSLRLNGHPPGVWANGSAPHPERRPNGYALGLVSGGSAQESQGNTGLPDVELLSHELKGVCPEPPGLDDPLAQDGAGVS

SMILES | inhibition [1] [%] | inhibition [2] [%] | Ki [3] [nM] | Kb [4] [nM] | inhibition [5] [%] | Ki [6] [nM] | Ki [7] [nM] | Ki [8] [nM]
Cn1c(=O)c2[nH]c(-c3ccc(OCC(=O)Nc4ccc(C#N)cc4)cc3)cc2n(C)c1=O | 47 | 91 | 4.27 | 43.7 | 60 | – | – | –
CCCn1c(=O)c2[nH]c(-c3ccc(OCC(=O)Nc4ccc(F)cc4)cc3)nc2n(CCC)c1=O | – | – | 18.2 | – | – | – | – | –
Cn1c(=O)c2[nH]c(-c3ccc(OCC(=O)Nc4ccccc4)cc3)cc2n(C)c1=O | 10 | 91 | 240 | – | 44 | – | – | –
CCCn1c(=O)c2[nH]c(-c3ccc(OCC(=O)Nc4cccc(F)c4)cc3)c(Cl)c2n(CCC)c1=O | 20 | 46 | – | – | 6 | 245 | 60.3 | –
CC(Oc1ccc(-c2cc3c([nH]2)c(=O)n(C)c(=O)n3C)cc1)C(=O)Nc1ccccc1 (stereo not drawn) | 60 | 99 | 7.76 | – | 73 | 47.9 | 4.79 | 912
CCCn1c(=O)c2[nH]c(-c3ccc(OCC(=O)Nc4ccc(CC#N)cc4)cc3)cc2n(CCC)c1=O | 46 | 86 | – | – | 34 | 39.8 | 11.2 | –
CCCn1c(=O)c2[nH]c(-c3ccc(OCC(=O)Nc4ccc(C=O)cc4)cc3)cc2n(CCC)c1=O | 13 | 67 | – | – | 13 | 490 | 63.1 | –
CCCn1c(=O)c2[nH]c(-c3ccc(OCC(=O)Nc4ccc(C(=O)OCC)cc4)cc3)cc2n(C)c1=O | 9 | 88 | – | – | 12 | 2630 | 11.7 | –
COc1cc(-c2cc3c([nH]2)c(=O)n(C)c(=O)n3C)ccc1OCC(=O)Nc1ccc(C#N)cc1 | 5 | 28 | – | – | 10 | 575 | 214 | –
CCCn1c(=O)c2[nH]c(-c3ccc(OCC(=O)Nc4ccc(S(=O)(=O)c5ccccc5)cc4)cc3)cc2n(CCC)c1=O | 27 | 85 | – | – | 10 | 282 | 17.4 | –
COc1cc(OCC(=O)NCc2ccc(Cl)cc2)ccc1-c1cc2c([nH]1)c(=O)n(C)c(=O)n2C | 23 | 46 | – | – | 11 | 186 | 123 | –
CCN(Cc1ccccc1)C(=O)COc1ccc(-c2cc3c([nH]2)c(=O)n(C)c(=O)n3C)cc1 | 17 | 59 | – | – | 15 | 891 | 42.7 | –
CCCn1c(=O)c2[nH]c(-c3ccc(OCC(=O)Nc4ccccc4)cc3)nc2n(CCC)c1=O | – | – | 40.7 | – | – | 2.24 | 1.51 | –
CCCn1c(=O)c2[nH]c(-c3ccc(OC(CC)C(=O)Nc4ccc(Br)cc4)cc3)cc2n(CCC)c1=O (stereo not drawn) | 82 | 94 | – | – | 55 | 31.6 | 6.03 | –
CCCn1c(=O)c2[nH]c(-c3ccc(OCC(=O)Nc4ccc(Br)cc4)cc3)nc2n(CCC)c1=O | – | – | – | – | – | 1660 | 2.4 | 2340
CCCn1c(=O)c2[nH]c(-c3ccc(OCC(=O)Nc4ccccn4)cc3)cc2n(CCC)c1=O | 34 | 83 | – | – | 33 | 309 | 26.9 | –
CCCn1c(=O)c2[nH]c(-c3ccc(OCC(=O)Nc4ccc(OC)nc4)cc3)cc2n(CCC)c1=O | 50 | 84 | – | – | 41 | 107 | 10.7 | –
CCCn1c(=O)c2[nH]c(-c3ccc(OCC(=O)NCc4ccncc4)cc3)cc2n(CCC)c1=O | 18 | 76 | – | – | 21 | 302 | 28.2 | –
